Source: paper PMC5382325, “Rapid Screening of Potential Phosphodiesterase Inhibitors from the Roots of Ilex pubescens Hook. et Arn. Using a Combination of Ultrafiltration and LC–MS” (Evidence-based Complementary and Alternative Medicine : eCAM, 2017)
Several values for one entry are separate records, joined by “and”; a condition that tells them apart may be missing. Equal values may be shown once. Read-outs that look alike come from different tables or passages of the source.

Key:
[1] = target: T1, Phosphodiesterase I (PDEI) from Crotalus adamanteus venom (Crotalus adamanteus, UniProt J3SEZ3); format: binding
T1 sequence (J3SEZ3 24-851 limits assumed): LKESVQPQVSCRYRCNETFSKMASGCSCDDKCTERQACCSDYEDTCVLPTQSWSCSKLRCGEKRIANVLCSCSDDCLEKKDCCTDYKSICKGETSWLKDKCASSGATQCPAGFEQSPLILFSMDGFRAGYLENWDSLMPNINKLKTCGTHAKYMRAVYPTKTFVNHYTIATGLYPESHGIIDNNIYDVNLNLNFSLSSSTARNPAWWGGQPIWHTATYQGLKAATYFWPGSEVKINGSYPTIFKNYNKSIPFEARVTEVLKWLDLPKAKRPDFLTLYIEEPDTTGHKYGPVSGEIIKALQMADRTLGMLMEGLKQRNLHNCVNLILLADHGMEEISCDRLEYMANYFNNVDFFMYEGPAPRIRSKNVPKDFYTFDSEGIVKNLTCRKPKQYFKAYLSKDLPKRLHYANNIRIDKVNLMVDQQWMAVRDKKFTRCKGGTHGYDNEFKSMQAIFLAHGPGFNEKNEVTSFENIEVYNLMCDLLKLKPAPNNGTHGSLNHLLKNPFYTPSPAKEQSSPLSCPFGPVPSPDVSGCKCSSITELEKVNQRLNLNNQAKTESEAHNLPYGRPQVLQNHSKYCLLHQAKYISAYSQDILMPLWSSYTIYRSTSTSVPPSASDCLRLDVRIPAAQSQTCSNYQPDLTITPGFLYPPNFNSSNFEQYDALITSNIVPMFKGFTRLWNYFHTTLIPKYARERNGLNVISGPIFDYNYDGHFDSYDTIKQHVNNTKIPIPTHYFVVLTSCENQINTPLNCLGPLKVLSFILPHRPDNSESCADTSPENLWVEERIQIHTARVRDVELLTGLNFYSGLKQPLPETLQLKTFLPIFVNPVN

Recombinant human PDE5A = Recombinant human PDE5A (Homo sapiens, UniProt O76074); test: PDE inhibition assay against PDE5A (Cyclic Nucleotide Phosphodiesterase Assay Kit, spectrophotometric); format: biochemical; conditions: in vitro; for IC50: read-out: Inhibitory activity (IC50) PDE5A
[2] = target: T1, Phosphodiesterase I (PDEI) from Crotalus adamanteus venom; format: biochemical; conditions: read-out: Inhibitory activity (IC50) PDEI

SMILES	Binding to PDEI (in words) [1]	Enhancement factor with PDEI ([1]; n = 3)	Activity against PDE5A (in words) (Recombinant human PDE5A)	Enhancement factor with PDEI [1]	IC50 [2] [µM]	IC50 (Recombinant human PDE5A) [µM]
O=C(C=Cc1ccc(O)c(O)c1)OC1CC(O)(C(=O)O)CC(O)C1OC(=O)C=Cc1ccc(O)c(O)c1 (centres unmarked) [Isochlorogenic acid C (5), Isochlorogenic acid C]	quite strong bindings to PDEI	26.73 ± 0.41% and 40.03 ± 0.14%	not active	–	–	–
C[C@H]1CC[C@]2(C(=O)O)CC[C@]3(C)C(=CC[C@@H]4[C@@]5(C)CC[C@H](O[C@@H]6OC[C@@H](O)[C@H](O)[C@H]6O[C@@H]6O[C@H](CO)[C@@H](O)[C@H](O)[C@H]6O)C(C)(C)[C@@H]5CC[C@]43C)[C@@H]2[C@]1(C)O [Ilexsaponin B1 (10), Ilexsaponin B1]	–	–	–	9.20 ± 0.62% and 15.54 ± 0.21%	854	1800
C[C@@H]1O[C@@H](O[C@H]2[C@H](O[C@H]3[C@H](O[C@H]4CC[C@]5(C)[C@H]6CC=C7[C@H]8[C@](C(=O)O)(CC[C@H](C)[C@@]8(C)O)CC[C@@]7(C)[C@]6(C)CC[C@H]5C4(C)C)OC[C@@H](O)[C@@H]3O)O[C@H](CO)[C@@H](O)[C@@H]2O)[C@H](O)[C@H](O)[C@H]1O [Ilexsaponin B2 (8), Ilexsaponin B2]	strongest PDEI ligand	–	–	28.73 ± 0.55% and 41.85 ± 0.86%	478	48.8
C[C@@H]1CC[C@]2(C(=O)O)CC[C@]3(C)C(=CCC4[C@@]5(C)CC[C@H](O)[C@](C)(C(=O)O)C5CC[C@]43C)C2[C@]1(C)O (some centres unmarked) [Ilexgenin A (11), Ilexgenin A]	–	23.08 ± 0.44% and 30.82 ± 0.31%	–	–	–	177
C[C@@H]1CC[C@]2(C(=O)OC3OC(CO)C(O)C(O)C3O)CC[C@]3(C)C(=CCC4[C@@]5(C)CC[C@H](O)[C@](C)(C(=O)O)C5CC[C@]43C)C2[C@]1(C)O (some centres unmarked) [Ilexsaponin A1(9), Ilexsaponin A1]	low binding efficiency	11.68 ± 0.31% and 18.59 ± 0.65%	–	–	–	22.4
O=C(C=Cc1ccc(O)c(O)c1)OC1CC(O)(C(=O)O)CC(O)C1OC(=O)C=Cc1ccc(O)c(O)c1 (centres unmarked) [Isochlorogenic acid B (3), Isochlorogenic acid B]	–	19.15 ± 0.77% and 25.90 ± 1.30%	–	–	–	193
